Patent US10221163B2 (priority 2015, dated 2019)
Like-named read-outs stand apart in the source and are kept apart here.

Experiments:
NDM-1 = NDM-1 (Klebsiella pneumoniae, UniProt C7C422); assay: biochemical; assay type: biochemical; details: fluorescence assay, CCF2-FA substrate, 1 pM enzyme, 2 hours at 25° C.; read-out: NDM-1 IC50
Outline: (§1)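 Two-hour, 25° C incubation of enzyme with inhibitor and CCF2-FA (7-hydroxycoumarin–cephalosporin–fluorescein). Fluorescence read-out; IC50 via 4-parameter fit.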

IMP-1 = IMP-1 (Serratia marcescens, UniProt P52699); assay: biochemical; assay type: biochemical; details: CCF2-FA substrate, 2 pM enzyme, 2 hours at 25° C.
Chain of IMP-1 (P52699 whole entry, looked up, species assumed): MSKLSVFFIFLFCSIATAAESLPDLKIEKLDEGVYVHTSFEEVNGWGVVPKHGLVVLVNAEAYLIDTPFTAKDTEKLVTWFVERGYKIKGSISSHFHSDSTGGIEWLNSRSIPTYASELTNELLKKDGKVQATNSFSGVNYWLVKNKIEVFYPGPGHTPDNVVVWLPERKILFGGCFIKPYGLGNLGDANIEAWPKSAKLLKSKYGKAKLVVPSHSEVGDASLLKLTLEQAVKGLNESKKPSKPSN
Outline: as §1

[1] = test system: Pseudomonas aeruginosa efflux− (MB9799), IMP-1; assay type: cell-based; details: C, D serine β-lactamase inhibitor closely related to relebactam; for P. aeruginosa expressing IMP-1, efflux − (MB9799) MITC95: concentration restoring susceptibility to imipenem at 2 μg/mL in the presence of a class A; for Concentration of metallo-β-lactamase inhibitor which restores susceptibility of efflux − (MB9799) strain to imipenem: imipenem at 2 μg/mL, in the presence of a class A
Outline: (§2)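 Steps: add fixed imipenem and/or ceftazidime (usually CLSI breakpoint) and fixed AmpC-directed class A/C inhibitor to microbroth MIC wells; titrate MBL inhibitor; record concentration regaining susceptibility for each PAO1-derived strain; divide efflux+ by efflux− value.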

[2] = test system: Pseudomonas aeruginosa efflux+ (MB9798), IMP-1; assay type: cell-based; set-up: Concentration of metallo-β-lactamase inhibitor which restores susceptibility of efflux + (MB9798) strain to imipenem: unit not given here; details: C, D serine β-lactamase inhibitor closely related to relebactam; for P. aeruginosa expressing IMP-1, efflux + (MB9798) MITC95: concentration restoring susceptibility to imipenem at 2 μg/mL in the presence of a class A; for Concentration of metallo-β-lactamase inhibitor which restores susceptibility of efflux + (MB9798) strain to imipenem: imipenem at 2 μg/mL, in the presence of a class A
Outline: as §2

[3] = test system: Klebsiella pneumoniae expressing VIM-1 (IHMA599644); assay type: cell-based; details: for Klebsiella pneumoniae MITC95: VIM-1 strain IHMA599644, with imipenem 1 μg/ml, 95% inhibition of growth; for Klebsiella pneumoniae expressing VIM-1 (IHMA599644) MITC95: with imipenem 1 μg/ml, 95% inhibition of bacterial growth
Outline: (§3)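 Clinical isolates (E. coli NDM-1, S. marcescens IMP-1, K. pneumoniae VIM-1) were diluted 1:100 from saline suspension into 1.1×CAMHB and exposed to test compound with imipenem at 1 μg/ml. Plates were incubated at 35° C for 22 hours to 24 hours, and growth was read by absorbance.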

[4] = test system: Escherichia coli expressing NDM-1 (CLB30005, CLB30016); assay type: cell-based; details: with imipenem 1 μg/ml; for Escherichia coli MITC95: NDM-1 strain, 95% inhibition of growth; for Escherichia coli expressing NDM-1 (CLB30016) MITC95: 95% inhibition of bacterial growth
Outline: as §3

[5] = test system: Serratia marcescens expressing IMP-1 (CL5741); assay type: cell-based; details: for Serratia marcescens MITC95: IMP-1 strain CL5741, with imipenem 1 μg/ml, 95% inhibition of growth; for Serratia marcescens expressing IMP-1 (CL5741) MITC95: with imipenem 1 μg/ml, 95% inhibition of bacterial growth
Outline: as §3

[6] = test system: Pseudomonas aeruginosa MB9798 vs MB9799; details: ratio MITC95 PA_9798/MITC95 PA_9799
Description: The strain background was Pseudomonas aeruginosa PAO1.
The strain set was then used as a pair to determine the effect of metallo-β-lactamase inhibitors of Formula I on the MIC of imipenem and/or ceftazidime. A fixed concentration of antibiotic was included in standard microbroth MIC tests, usually at the CLSI (Clinical and Laboratory Standards Institute) breakpoint concentration. A fixed amount of a class A/C beta-lactamase inhibitor was also included to inhibit the resident Pseudomonas AmpC enzyme. A serial titration of the metallo-β-lactamase inhibitor was included and the concentration of metallo-β-lactamase inhibitor which restores susceptibility of the strain to the included antibiotic was recorded. That concentration of metallo-β-lactamase inhibitor was then compared between the two strains to determine the fold difference between the efflux+ (MB9798) and efflux− (MB9799) strains. This was taken as an indication of the extent to which the MBLi is subject to efflux.

VIM-1 = VIM-1 (Pseudomonas aeruginosa (strain ATCC 15692 / DSM 22644 / CIP 104116 / JCM 14847 / LMG 12228 / 1C / PRS 101 / PAO1), UniProt A0A0F7KYQ8); assay: biochemical; details: CCF2-FA substrate, 30 pM enzyme, 2 hours at 25° C.
Description: Enzyme Activity: Determination of IC50
The Class B enzyme activities were measured in the presence of the test inhibitor in a fluorescence assay against a commercially available substrate consisting of a cephalosporin core linking 7-hydroxycoumarin to fluorescein (CCF2-FA). […] In a 384-well microplate, the test inhibitor was incubated with the metallo-β-lactamase enzyme and the substrate for 2 hours at 25° C. […] The IC50 value was determined from semi-logarithmic plots of enzyme inhibition versus inhibitor concentration, with a curve generated using a 4-parameter fit.

[7] = fluorescence assay, read-out: IMP-1 IC50
[8] = fluorescence assay, read-out: VIM-1 IC50

Chain of NDM-1 (C7C422 whole entry, looked up, species assumed): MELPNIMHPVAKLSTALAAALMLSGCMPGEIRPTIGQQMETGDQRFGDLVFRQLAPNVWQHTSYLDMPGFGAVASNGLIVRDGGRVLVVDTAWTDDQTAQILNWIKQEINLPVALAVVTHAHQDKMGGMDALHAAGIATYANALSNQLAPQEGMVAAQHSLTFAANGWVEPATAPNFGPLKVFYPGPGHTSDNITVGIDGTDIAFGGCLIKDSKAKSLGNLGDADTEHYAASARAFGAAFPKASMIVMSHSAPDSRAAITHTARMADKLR

Row | Compound | IC50 (NDM-1) | IC50 (IMP-1; [7]) | P. aeruginosa expressing IMP-1, efflux − (MB9799) MITC95 [1] | P. aeruginosa expressing IMP-1, efflux + (MB9798) MITC95 [2] | Klebsiella pneumoniae MITC95 [3] | Escherichia coli MITC95 [4] | Serratia marcescens MITC95 [5] | Efflux ratio [6] | IC50 (VIM-1; [8]) | Concentration of metallo-β-lactamase inhibitor which restores susceptibility of efflux − (MB9799) strain to imipenem [1] | Concentration of metallo-β-lactamase inhibitor which restores susceptibility of efflux + (MB9798) strain to imipenem [2] | Klebsiella pneumoniae expressing VIM-1 (IHMA599644) MITC95 [3] | Escherichia coli expressing NDM-1 (CLB30016) MITC95 [4] | Serratia marcescens expressing IMP-1 (CL5741) MITC95 [5] | IC50 (IMP-1; IMP-1 IC50, fluorescence assay) | IC50 (VIM-1; VIM-1 IC50, fluorescence assay)
1 | C[N+]1(CCN)CC[C@H](NS(=O)(=O)c2ccc(-c3cccc4[nH]c(N)nc34)c(-c3nn[nH]n3)c2S(N)(=O)=O)C1.O=C([O-])O (stereo partly drawn) [Example 249, (3S)-3-{[4-(2-amino-1H-1,3-benzodiazol-4-yl)-2-sulfamoyl-3-(2H-1,2,3,4-tetrazol-5-yl)benzene]sulfonamido}-1-(2-aminoethyl)-1-methylpyrrolidin-1-ium methaneperoxoate] | 0.0153 nM | 0.342 nM | 0.7813 µM | 0.7813 µM | 1.563 µM | 0.3906 µM | 1.563 µM | 1.00 |  |  |  |  |  |  |  | 
2 | NCCNS(=O)(=O)c1ccc(-c2cccc(C(=O)N[C@@H]3CNC[C@H]3O)c2)c(-c2nn[nH]n2)c1S(N)(=O)=O [Example 344] | 1.39 nM | 4.26 nM | 0.7813 µM | 1.563 µM | 1.563 µM | 0.7813 µM | 1.563 µM |  | 0.52 nM |  |  |  |  |  |  | 
3 | Nc1nc2c(-c3ccc(S(=O)(=O)NC4C[C@@H]5CN[C@H]4C5)c(S(N)(=O)=O)c3-c3nnn[nH]3)cccc2s1.O=CO (stereo partly drawn) [Example 119, 4-(2-aminobenzo[d[thiazol-4-yl)-N1-((1S,4R)-2-azabicyclo[2.2.1]heptan-6-yl)-3-(1H-tetrazol-5-yl)benzene-1,2-disulfonamide, formate salt] | 0.0407 nM | 0.223 nM |  |  |  |  |  |  | 0.254 nM |  |  |  |  |  |  | 
4 | C[C@H](N)Cc1nc2c(-c3ccc(S(=O)(=O)N[C@@H]4CCNC4)c(S(N)(=O)=O)c3-c3nn[nH]n3)cccc2[nH]1 [Example 441, 4-(2-((S)-2-Aminopropyl)-1H-benzo[d]imidazol-4-yl)-N1-((R)-pyrrolidin-3-yl)-3-(2H-tetrazol-5-yl)benzene-1,2-disulfonamide] | 0.0811 nM | 1.23 nM |  |  | 1.563 µM | 1.563 µM | 1.563 µM |  | 0.15 nM | 0.7813 | 1.563 |  |  |  |  | 
5 | NC[C@H]1CCN(S(=O)(=O)c2ccc(-c3cccc4[nH]c(N)nc34)c(-c3nn[nH]n3)c2S(N)(=O)=O)C1 [Example 253, (R)-3-(2-amino-1H-benzo[d]imidazol-4-yl)-6-((3-(aminomethyl)pyrrolidin-1-yl)sulfonyl)-2-(2H-tetrazol-5-yl)benzenesulfonamide] | 0.884 nM | 2.68 nM | 0.7813 µM | 1.563 µM | 1.563 µM | 1.563 µM | 0.7813 µM |  | 1.53 nM |  |  |  |  |  |  | 
6 | Nc1nc2c(-c3ccc(S(=O)(=O)NC4C[C@@H]5CN[C@H]4C5)c(S(N)(=O)=O)c3-c3nnn[nH]3)cccc2s1.O=CO (stereo partly drawn) [Example 119] |  |  | 1.563 µM | 0.7813 µM |  |  |  | 0.50 |  |  |  | 3.125 µM | 1.563 µM | 1.563 µM |  | 
7 | Nc1ccc(-c2ccc(S(=O)(=O)N[C@H]3CNC[C@H]3N)c(S(N)(=O)=O)c2-c2nn[nH]n2)cn1 [Example 413] | 0.248 nM | 0.8 nM |  |  | 3.125 µM | 0.7813 µM | 1.563 µM |  | 0.3 nM | 1.563 | 1.563 |  |  |  |  | 
8 | C[C@H](CN)NS(=O)(=O)c1ccc(-c2cccc3sc(N)nc23)c(-c2nnn[nH]2)c1S(N)(=O)=O [Example 72, (R)-4-(2-aminobenzo[d]thiazol-4-yl)-N^1-(1-aminopropan-2-yl)-3-(1H-tetrazol-5-yl)benzene-1,2-disulfonamide] | 0.02 nM |  |  |  |  |  |  |  |  |  |  | 3.125 µM | 1.563 µM | 1.563 µM | 0.27 nM | 0.26 nM
9 | Nc1ccc(-c2ccc(S(=O)(=O)N[C@@H]3CNC[C@@H]3N)c(S(N)(=O)=O)c2-c2nn[nH]n2)cn1 [Example 414] | 0.329 nM | 0.786 nM |  |  | 3.125 µM | 0.3906 µM | 0.7813 µM |  | 0.347 nM | 1.563 | 1.563 |  |  |  |  | 
10 | NCc1nc2c(-c3ccc(S(=O)(=O)NC[C@@H]4CNCCN4)c(S(N)(=O)=O)c3-c3nn[nH]n3)cccc2[nH]1 [Example 311, (S)-4-(2-(aminomethyl)-1H-benzo[d]imidazol-4-yl)-N-(piperazin-2-ylmethyl)-3-(2H-tetrazol-5-yl)benzene-1,2-disulfonamide] | 0.0986 nM |  | 1.563 µM | 1.563 µM | 3.125 µM | 1.563 µM | 1.563 µM |  | 0.11 nM |  |  |  |  |  |  | 
11 | Nc1nc2c(-c3ccc(S(=O)(=O)NC[C@@H]4CCCN4)c(S(N)(=O)=O)c3-c3nnn[nH]3)cccc2s1.O=CO [Example 125, (S)-2-((4-(2-aminobenzo[d]thiazol-4-yl)-2-sulfamoyl-3-(1H-tetrazol-5-yl)phenylsulfonamido)methyl)pyrrolidin-1-ium formate] | 0.0465 nM |  | 1.563 µM | 0.7813 µM |  |  |  |  | 0.196 nM |  |  | 3.125 µM | 1.563 µM | 1.563 µM |  | 
12 | Nc1nc2c(-c3ccc(S(=O)(=O)N[C@H]4C[C@H](N)C4)c(S(N)(=O)=O)c3-c3nnn[nH]3)cccc2s1.O=C(O)C(F)(F)F [Example 98, (1r,3r)-3-(4-(2-aminobenzo[d]thiazol-4-yl)-2-sulfamoyl-3-(1H-tetrazol-5-yl)phenylsulfonamido)cyclobutanaminium 2,2,2-trifluoroacetate] | 0.0365 nM |  | 1.042 µM | 0.7813 µM |  |  |  |  |  |  |  | 2.604 µM | 1.823 µM | 1.563 µM |  | 0.169 nM
